Active and inactive are the calls of the source. The rule behind the calls is not given here.
Experiments:
MCF7 = assay: Antiproliferative activity against human MCF-7 cells assessed as reduction in cell viability incubated for 48 hrs by MTT assay; format: functional, cell-based; details: MCF7, 48 h
HT-29 = assay: Antiproliferative activity against human HT-29 cells assessed as reduction in cell viability incubated for 48 hrs by MTT assay; format: functional, cell-based; details: HT-29, 48 h
T47D = assay: Antiproliferative activity against human T47D cells assessed as reduction in cell viability incubated for 48 hrs by MTT assay; format: functional, cell-based
[1] = Cytotoxicity against human peripheral blood mononuclear cells assessed as reduction in cell survival at 10 uM incubated for 48 hrs by MTT assay; format: cell-based; details: pbmc
HBL-100 [2] = assay: Cytotoxicity against human HBL-100 cells assessed as disruption of cell morphology at 10 uM; format: cell-based; details: hbl-100, 10 µM
MDA-MB-231 [3] = assay: Antiproliferative activity against human MDA-MB-231 cells assessed as reduction in cell viability incubated for 48 hrs by MTT assay; format: functional, cell-based; details: MDA-MB-231, 48 h
A549 = assay: Antiproliferative activity against human A549 cells assessed as reduction in cell viability incubated for 48 hrs by MTT assay; format: functional, cell-based; details: A549, 48 h
MDA-MB-231 [4] = assay: Induction of mitochondrial membrane potential depolarization in human MDA-MB-231 cells assessed as […] fluorescence to green fluorescence ratio at sub-IC50 concentration incubated for 48 hrs by JC1 staining based flow cytometry; format: functional, cell-based
MDA-MB-231 [5] = assay: Induction of reactive oxygen species generation in human MDA-MB-231 cells assessed as increase in intracellular ROS level at sub-IC50 concentration incubated for 48 hrs by H2DCFDA staining based flow cytometry; format: functional, cell-based
HBL-100 [6] = assay: Cytotoxicity against human HBL-100 cells assessed as reduction in cell survival at 10 uM incubated for 48 hrs by MTT assay; format: cell-based; details: hbl-100, 48 h
[7] = target: Epidermal growth factor receptor (Homo sapiens, UniProt P00533); assay: Inhibition of EGFR (unknown origin) using Tyrosine 4 peptide and ATP as substrate incubated for 1 hr by Z'-lyte kinase assay based […] method
Chain of Epidermal growth factor receptor (P00533 whole entry): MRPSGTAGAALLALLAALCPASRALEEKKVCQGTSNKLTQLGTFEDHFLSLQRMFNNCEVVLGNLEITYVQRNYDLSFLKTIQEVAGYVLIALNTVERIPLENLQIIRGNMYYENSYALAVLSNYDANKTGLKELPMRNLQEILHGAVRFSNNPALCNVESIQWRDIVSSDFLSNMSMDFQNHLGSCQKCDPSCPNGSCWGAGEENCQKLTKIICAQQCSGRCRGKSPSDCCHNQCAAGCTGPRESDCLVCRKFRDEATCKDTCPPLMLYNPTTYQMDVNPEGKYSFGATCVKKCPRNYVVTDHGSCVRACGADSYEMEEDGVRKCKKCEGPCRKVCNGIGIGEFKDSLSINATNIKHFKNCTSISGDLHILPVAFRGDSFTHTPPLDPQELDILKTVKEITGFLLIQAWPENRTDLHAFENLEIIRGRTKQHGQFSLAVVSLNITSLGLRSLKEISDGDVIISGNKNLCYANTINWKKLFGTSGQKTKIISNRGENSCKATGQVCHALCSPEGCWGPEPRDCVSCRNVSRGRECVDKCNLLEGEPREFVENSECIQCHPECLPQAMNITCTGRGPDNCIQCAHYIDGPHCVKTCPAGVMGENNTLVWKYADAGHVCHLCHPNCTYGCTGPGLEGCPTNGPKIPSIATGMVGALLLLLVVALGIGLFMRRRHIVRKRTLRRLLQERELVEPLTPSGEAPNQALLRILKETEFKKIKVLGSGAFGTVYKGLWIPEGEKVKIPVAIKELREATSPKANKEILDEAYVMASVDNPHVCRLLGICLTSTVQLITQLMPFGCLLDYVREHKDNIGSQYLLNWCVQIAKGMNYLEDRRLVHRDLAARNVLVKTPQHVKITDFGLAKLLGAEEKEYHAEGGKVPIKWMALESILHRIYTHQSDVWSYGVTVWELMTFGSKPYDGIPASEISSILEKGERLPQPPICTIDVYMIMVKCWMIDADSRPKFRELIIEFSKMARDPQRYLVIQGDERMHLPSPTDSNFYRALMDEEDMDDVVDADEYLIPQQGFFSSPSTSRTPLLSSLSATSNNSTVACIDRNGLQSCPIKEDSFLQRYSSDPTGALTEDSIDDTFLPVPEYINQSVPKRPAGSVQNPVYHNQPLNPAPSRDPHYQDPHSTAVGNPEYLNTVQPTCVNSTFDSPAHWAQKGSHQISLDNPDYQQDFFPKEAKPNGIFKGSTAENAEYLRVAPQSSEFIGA

IC50 (MCF7) | IC50 (HT-29) | IC50 (T47D) | IC50 (MDA-MB-231 [3]) | IC50 (A549) | IC50 [7] | SMILES | Activity [1] | Activity (HBL-100 [2]) | Activity (MDA-MB-231 [4]) | Activity (MDA-MB-231 [5]) | Activity (HBL-100 [6])
3.87 µM | 9.19 µM | 9.19 µM | 2.87 µM | 4.62 µM |  | COc1ccc(/C=N/c2c(C#N)ncn2Cc2ccc(F)cc2)cc1 | Non-Toxic | Toxic |  |  | 
9.1 µM | 15.9 µM | 15.9 µM | 13.4 µM | 18.1 µM |  | N#Cc1ncn(-c2ccc(F)cc2)c1/N=C/c1ccc([N+](=O)[O-])cc1 |  |  |  |  | 
11.3 µM | 21.5 µM | 21.5 µM | 16.1 µM | 10.9 µM |  | COc1cc(/C=N/c2c(C#N)ncn2Cc2ccc(F)cc2)ccc1O |  |  |  |  | 
11.1 µM | 13.8 µM | 8.2 µM | 10.5 µM | 9.13 µM |  | COc1ccc(/C=N/c2c(C#N)ncn2Cc2ccc(F)cc2)cc1OC |  |  |  |  | 
14.7 µM | 7.23 µM | 7.23 µM | 4.27 µM | 2.96 µM |  | COc1ccc(/C=N/c2c(C#N)ncn2-c2ccc(F)cc2)cc1OC | Toxic |  |  |  | 
7.46 µM | 2.37 µM | 10.7 µM | 8.67 µM | 2.29 µM |  | COc1cc(C2N=C(C(N)=O)c3ncn(-c4ccc(F)cc4)c3N2)cc(OC)c1OC (centres undefined) | Toxic |  |  |  | 
8.32 µM | 13.7 µM | 13.7 µM | 18.7 µM | 9.88 µM |  | COc1cc(/C=N/c2c(C#N)ncn2-c2ccc(F)cc2)cc(OC)c1OC |  |  |  |  | 
9.87 µM | > 25 µM | > 25 µM | 20.4 µM | 14.7 µM |  | CC(C)c1ccc(/C=N/c2c(C#N)ncn2-c2ccc(F)cc2)cc1 |  |  |  |  | 
9.33 µM | 19.4 µM | 19.4 µM | 17.1 µM | 17.1 µM |  | COc1ccc(/C=N/c2c(C#N)ncn2-c2ccc(F)cc2)cc1 |  |  |  |  | 
10.9 µM | 22.4 µM | 22.4 µM | 17.6 µM | 13.1 µM |  | COc1ccc(OC)c(/C=N/c2c(C#N)ncn2Cc2ccc(F)cc2)c1 |  |  |  |  | 
9.04 µM | 16.5 µM | 17.5 µM | 2.87 µM | 9.71 µM |  | COc1cc(/C=N/c2c(C#N)ncn2Cc2ccc(F)cc2)cc(OC)c1OC | Toxic |  |  |  | 
10.6 µM | 5.72 µM | 5.72 µM | 3.44 µM | 2.02 µM |  | N#Cc1ncn(Cc2ccc(F)cc2)c1/N=C/c1ccc([N+](=O)[O-])cc1 | Toxic |  |  |  | 
9.99 µM | 20.1 µM | 20.1 µM | 13.6 µM | 13.6 µM |  | COc1cc(/C=N/c2c(C#N)ncn2-c2ccc(F)cc2)ccc1O |  |  |  |  | 
7.85 µM | 19.9 µM | 19.9 µM | 21.4 µM | > 25 µM |  | COc1ccc(/C=N/c2c(C#N)ncn2-c2ccc(F)cc2)cc1O |  |  |  |  | 
4.53 µM | 6.14 µM | 6.14 µM | 2.67 µM | 1.32 µM |  | COc1ccc(/C=N/c2c(C#N)ncn2Cc2ccc(F)cc2)cc1O | Non-Toxic | Toxic |  |  | 
11.5 µM | 20.4 µM | 20.4 µM | 16.3 µM | 16.3 µM |  | N#Cc1ncn(-c2ccc(F)cc2)c1/N=C/c1ccc(O)cc1 |  |  |  |  | 
 |  |  |  |  |  | COc1ccc(C2N=C(C(N)=O)c3ncn(-c4ccc(N5CCN(C)CC5)c([N+](=O)[O-])c4)c3N2)cc1OC (centres undefined) |  |  | Active | Active | 
5.71 µM | 3.29 µM | 9.96 µM | 6.76 µM | 2.29 µM | 0.617 µM | COc1ccc(C2N=C(C(N)=O)c3ncn(-c4ccc(F)cc4)c3N2)cc1OC (centres undefined) | Non-Toxic | Non-Toxic |  |  | Non-Toxic
12.6 µM | > 25 µM | > 25 µM | > 25 µM | 24.3 µM |  | COc1ccc(/C=N/c2c(C#N)ncn2Cc2ccc(F)cc2)c(OC)c1OC |  |  |  |  | 
7.09 µM | 16.3 µM | 16.3 µM | 12.3 µM | 9.28 µM |  | COc1ccc(OC)c(/C=N/c2c(C#N)ncn2-c2ccc(F)cc2)c1 |  |  |  |  | 
9.99 µM | 15.3 µM | 15.3 µM | 17.2 µM | 17.2 µM |  | N#Cc1ncn(-c2ccc(F)cc2)c1/N=C/c1cc([N+](=O)[O-])ccc1O |  |  |  |  | 

Source: ChEMBL document CHEMBL4699428, “Anticancer potential of some imidazole and fused imidazole derivatives: exploring the mechanism via epidermal growth factor receptor (EGFR) inhibition” (RSC Med Chem, 2020)
